# pIC50: −log10 of the molar value. Activity calls are given as the source filed them. The rule behind the calls is not given here. Peptide text beside a SMILES is read from it. * marks the point of attachment. Cbz = O=C(OCc1ccccc1)*
# Experiments:
# [1] = system: MCF7; assay: Cytotoxicity against human MCF7 cells assessed as reduction in cell viability after 48 hrs by MTS assay; format: functional, cell-based; conditions: MCF7, 48 h
# [2] = system: RAW264.7; assay: Antiinflammatory activity in mouse RAW264.7 cells assessed as reduction in LPS-induced NO production at 25 uM preincubated for 1 hr followed by LPS stimulation measured after 18 hrs by Griess assay; format: functional, cell-based
# [3] = system: HL-60; assay: Cytotoxicity against human HL60 cells assessed as reduction in cell viability after 48 hrs by MTS assay; format: functional, cell-based; conditions: HL-60, 48 h
# [4] = system: SMMC-7721; assay: Cytotoxicity against human SMMC7721 cells assessed as reduction in cell viability after 48 hrs by MTS assay; format: functional, cell-based; conditions: SMMC-7721, 48 h
# [5] = system: A549; assay: Cytotoxicity against human A549 cells assessed as reduction in cell viability after 48 hrs by MTS assay; format: functional, cell-based; conditions: A549, 48 h
# [6] = system: SW480; assay: Cytotoxicity against human SW480 cells assessed as reduction in cell viability after 48 hrs by MTS assay; format: functional, cell-based; conditions: SW480, 48 h
# [7] = system: RAW264.7; assay: Antiinflammatory activity in mouse RAW264.7 cells assessed as reduction in LPS-induced NO production preincubated for 1 hr followed by LPS stimulation measured after 18 hrs by Griess assay; format: functional, cell-based
# [8] = Antioxidant activity assessed as DPPH radical scavenging activity at 50 uM after 1 hr; format: functional
# [9] = system: RAW264.7; assay: Inhibition of LPS-stimulated ROS production in mouse RAW264.7 cells at 25 ug/ml preincubated for 1 hr followed by LPS stimulation measured after 18 hrs by DCFH-DA probe based flow cytometry; format: functional, cell-based
# [10] = system: RAW264.7; assay: Antiinflammatory activity in mouse RAW264.7 cells assessed as reduction in LPS-induced NO production at 25 ug/ml preincubated for 1 hr followed by LPS stimulation measured after 18 hrs by DAF-FMDA probe based flow cytometry; format: functional, cell-based
# [11] = Antioxidant activity assessed as DPPH radical scavenging activity at 25 ug/ml after 1 hr; format: functional
Structure (SMILES),pIC50 [1],Activity [2],pIC50 [3],pIC50 [4],pIC50 [5],pIC50 [6],pIC50 [7],Activity [8] [%],inhibition [9],Activity [10],Activity [11] [%]
CC(C)[C@@H]1[C@@H]([C@@H]2CC[C@@H]3CN(C)C(=O)[C@@]32C)C(=O)O[C@H]1O,< 4.40,inactive,< 4.40,< 4.40,< 4.40,< 4.40,–,–,–,–,–
CC(C)C1=C(O)C(=O)[C@@]2(C)[C@@H]3CC[C@H]2[C@H]1C(=O)NC3,< 4.40,inactive,< 4.40,< 4.40,< 4.40,< 4.40,–,–,–,–,–
CC(C)[C@H]1[C@@H]2C(=O)O[C@H]1[C@@]1(O)N(C)C[C@H]3CC[C@@H]2[C@]31C,< 4.40,inactive,< 4.40,< 4.40,< 4.40,< 4.40,–,–,–,–,–
COC(=O)/C(=C(/C(=O)O)C(C)C)[C@@H]1CC[C@@H]2CN(C)C(=O)[C@@]21C,< 4.40,inactive,< 4.40,< 4.40,< 4.40,< 4.40,–,–,–,–,–
CC(C)C[C@@H](C=O)NC(=O)[C@H](CC(C)C)NC(=O)[C@H](CC(C)C)NC(=O)OCc1ccccc1 [MG-132] (Cbz-Leu-Leu-Leu-aldehyde),–,–,–,–,–,–,6.70,–,–,–,–
COc1cc(CCc2ccc(O)cc2)cc(O)c1-c1c(OC)cc([C@@H]2OO[C@H]2CO)cc1OC,4.71,–,4.63,4.46,4.68,< 4.40,4.67,37.6,Active,inactive,–
Cc1c(C)c2c(c(C)c1O)CCC(C)(C(=O)O)O2 (stereo unspecified),–,–,–,–,–,–,–,–,–,–,95.5
CC(C)[C@@H]1[C@H]2OC(=O)[C@@H]1[C@@H]1CC[C@@H]3CN(C)[C@H]2[C@@]31C,< 4.40,inactive,< 4.40,< 4.40,< 4.40,< 4.40,–,–,–,–,–
COc1ccc(CCc2cc(O)c(-c3c(OC)cc([C@@H]4OO[C@H]4CO)cc3OC)c(OC)c2)cc1,5.33,inactive,5.64,5.29,5.36,5.28,–,18.1,Active,–,–
CC(=O)O[C@H]1C(=O)[C@@]2(C)[C@H]([C@H](OC(=O)c3ccccc3)[C@]3(O)C[C@H](OC(=O)[C@H](O)[C@@H](NC(=O)c4ccccc4)c4ccccc4)C(C)=C1C3(C)C)[C@]1(OC(C)=O)CO[C@@H]1C[C@@H]2O [PACLITAXEL],> 8.10,–,> 8.10,> 8.10,> 8.10,> 8.10,–,–,–,–,–
COc1ccc(CCc2cc(OC)c(O[C@H](CO)[C@@H](O)c3ccc(O)c(OC)c3)c(OC)c2)cc1,< 4.40,inactive,< 4.40,< 4.40,< 4.40,< 4.40,–,27.6,Active,–,–
CC(C)C1=C(O)C(=O)[C@@]2(C)[C@@H]3CC[C@H]2[C@H]1C(=O)N(C)C3,< 4.40,inactive,< 4.40,< 4.40,< 4.40,< 4.40,–,–,–,–,–
COc1ccc(CCc2cc(OC)c3c(c2)O[C@@H](c2ccc(O)c(OC)c2)[C@H](CO)O3)cc1,< 4.40,inactive,< 4.40,< 4.40,< 4.40,< 4.40,–,9.56,inactive,–,–
